Tests used:
[1] = tested on: SK-OV-3 human ovarian carcinoma cell line; experiment: MTT cytotoxicity assay, SK-OV-3; type: cell-based; conditions: mean ± SD from three independent experiments
Method: (§1) The in vitro antiproliferative activity of the DHAA derivatives 3a–o and 4a–o against four human cancer cell lines (MGC-803 human gastric cancer cell line, CNE-2 human nasopharyngeal carcinoma cell line, SK-OV-3 human ovarian carcinoma cell line, NCI-H460 human lung cancer cell line) and the human normal liver cell line LO2 were evaluated by MTT (methyl thiazolytetrazolium) assay and compared with the parent compound DHAA and the positive control cisplatin in each panel.
(§2) The cytotoxicity of the compounds was evaluated against NCI-H460, MGC-803, SK-OV-3, CNE-2 and LO2 using an MTT assay. Cells were grown on 96-well micro-plates at a density of 4 × 10^3 cells per well in DMEM (dulbecco’s modified eagle medium) medium with 10% FBS (fetal bovine serum). The plates were incubated at 37 °C with 5% CO2. The cells were then exposed to different concentrations of target compounds and cisplatin and incubated for another 48 h. Control wells were formed by culture media with the maximum concentration of DMSO used in each assay (1‰). The cells were stained with 20 µL of MTT in an incubator for about 4 h. The medium was thrown away and replaced by […] DMSO. The absorbance (OD) value was read at 490 nm on an enzyme labeling instrument. Each experiment was repeated at least three times to obtain the mean values.

[2] = tested on: human normal liver cell line LO2; experiment: MTT cytotoxicity assay, normal LO2 cells; type: cell-based; conditions: mean ± SD from three independent experiments
Method: as §1, §2

[3] = tested on: NCI-H460 human lung cancer cell line; experiment: MTT cytotoxicity assay, NCI-H460; type: cell-based; conditions: mean ± SD from three independent experiments
Method: as §1, §2

[4] = tested on: CNE-2 human nasopharyngeal carcinoma cell line; experiment: MTT cytotoxicity assay, CNE-2; type: cell-based; conditions: mean ± SD from three independent experiments
Method: as §1, §2

[5] = tested on: MGC-803 human gastric cancer cell line; experiment: MTT cytotoxicity assay, MGC-803; type: cell-based; conditions: mean ± SD from three independent experiments
Method: as §1, §2

| melting point | Structure (SMILES) | IC50 ([1]; Homo sapiens, SK-OV-3, 48 h) | IC50 ([2]; Homo sapiens, L02, 48 h) | IC50 ([3]; Homo sapiens, NCI-H460, 48 h) | IC50 ([4]; Homo sapiens, CNE-2, 48 h) | IC50 ([5]; Homo sapiens, MGC-803, 48 h) | IC50 ([1]; 48 h) | IC50 ([2]; 48 h) | IC50 ([3]; 48 h) | IC50 ([4]; 48 h) | IC50 ([5]; 48 h) |
| --- | --- | --- | --- | --- | --- | --- | --- | --- | --- | --- | --- |
|  | COc1cccc(N2CC(COC(=O)[C@]3(C)CCC[C@]4(C)c5ccc(C(C)C)cc5CCC34)OC2=O)c1 (stereo partly drawn) [Compound 4f, (1R,4aS)-(3-(3-Methoxyphenyl)-2-Oxooxazolidin-5-yl)Methyl-7-Isopropyl-1,4a-Dimethyl-1,2,3,4,4a,9,10,10a-Octahydrophenanthrene-1-Carboxylate] | 43 ± 1.05 µM | > 100 µM | 17.2 ± 1.38 µM | 23.5 ± 1.2 µM | 19.7 ± 2.8 µM |  |  |  |  |  |
|  | COc1ccc(N2CC(COC(=O)[C@]3(C)CCC[C@]4(C)c5ccc(C(C)C)cc5CCC34)OC2=O)cc1 (stereo partly drawn) [Compound 4g, (1R,4aS)-(3-(4-Methoxyphenyl)-2-Oxooxazolidin-5-yl)Methyl-7-Isopropyl-1,4a-Dimethyl-1,2,3,4,4a,9,10,10a-Octahydrophenanthrene-1-Carboxylate] | 4.1 ± 2.45 µM | 26.36 ± 0.15 µM | 14.1 ± 8.04 µM | 19.8 ± 0.3 µM | 6.1 ± 0.35 µM |  |  |  |  |  |
|  | CC(C)c1ccc2c(c1)CCC1[C@](C)(C(=O)OCC3CN(c4ccccc4F)C(=O)O3)CCC[C@]21C (stereo partly drawn) [Compound 4h, (1R,4aS)-(3-(2-Fluorophenyl)-2-Oxooxazolidin-5-yl)Methyl-7-Isopropyl-1,4a-Dimethyl-1,2,3,4,4a, 9,10,10a-Octahydrophenanthrene-1-Carboxylate] | > 100 µM | > 100 µM | > 100 µM | > 100 µM | 49.9 ± 1.14 µM |  |  |  |  |  |
|  | CC(C)c1ccc2c(c1)CCC1[C@](C)(C(=O)OCC3CN(c4cccc(F)c4)C(=O)O3)CCC[C@]21C (stereo partly drawn) [Compound 4i, (1R,4aS)-(3-(3-Fluorophenyl)-2-Oxooxazolidin-5-yl)Methyl-7-Isopropyl-1,4a-Dimethyl-1,2,3,4,4a, 9,10,10a-Octahydrophenanthrene-1-Carboxylate] | 9.86 ± 4.3 µM | > 100 µM | 25.1 ± 4.5 µM | 28 ± 3.95 µM | 11.5 ± 0.25 µM |  |  |  |  |  |
|  | CC(C)c1ccc2c(c1)CCC1[C@](C)(C(=O)OCC3CN(c4cccc(Cl)c4)C(=O)O3)CCC[C@]21C (stereo partly drawn) [Compound 4k, (1R,4aS)-(3-(3-Chlorophenyl)-2-Oxooxazolidin-5-yl)Methyl-7-Isopropyl-1,4a-Dimethyl-1,2,3,4,4a,9,10,10a-Octahydrophenanthrene-1-Carboxylate] | 10.3 ± 5.46 µM | 37.2 ± 3.14 µM | 23 ± 2.62 µM | 31.2 ± 2.5 µM | 7.43 ± 1.42 µM |  |  |  |  |  |
| 170.6 to 172.5 °C | CC(C)c1ccc2c(c1)CCC1[C@](C)(C(=O)OCC3CN(c4ccc(Cl)cc4)C(=O)O3)CCC[C@]21C (stereo partly drawn) [Compound 4l, (1R,4aS)-(3-(4-Chlorophenyl)-2-Oxooxazolidin-5-yl)Methyl-7-Isopropyl-1,4a-Dimethyl-1,2,3,4,4a,9,10,10a-Octahydrophenanthrene-1-Carboxylate] | 15.7 ± 2.32 µM | 44.5 ± 2.77 µM | 26.55 ± 0.08 µM | 27.6 ± 1.5 µM | 5.82 ± 4.82 µM |  |  |  |  |  |
|  | CC(C)c1ccc2c(c1)CCC1[C@](C)(C(=O)OCC3CN(c4cccc(Br)c4)C(=O)O3)CCC[C@]21C (stereo partly drawn) [Compound 4m, (1R,4aS)-(3-(3-Bromophenyl)-2-Oxooxazolidin-5-yl)Methyl-7-Isopropyl-1,4a-Dimethyl-1,2,3,4,4a,9,10,10a-Octahydrophenanthrene-1-Carboxylate] | > 100 µM | 34.2 ± 2.88 µM | 25.1 ± 1.39 µM | > 100 µM | 9.8 ± 2.37 µM |  |  |  |  |  |
|  | CC(C)c1ccc2c(c1)CCC1[C@](C)(C(=O)OCC3CN(c4ccc(Br)cc4)C(=O)O3)CCC[C@]21C (stereo partly drawn) [Compound 4n, (1R,4aS)-(3-(4-Bromophenyl)-2-Oxooxazolidin-5-yl)Methyl-7-Isopropyl-1,4a-Dimethyl-1,2,3,4,4a,9,10,10a-Octahydrophenanthrene-1-Carboxylate] | > 100 µM | > 100 µM | 30.2 ± 2.66 µM | 42.5 ± 5.68 µM | 5.34 ± 3.45 µM |  |  |  |  |  |
| 125.2 to 130.4 °C | C#Cc1cccc(N2CC(COC(=O)[C@]3(C)CCC[C@]4(C)c5ccc(C(C)C)cc5CCC34)OC2=O)c1 (stereo partly drawn) [Compound 4o, (1R,4aS)-(3-(3-Ehynylphenyl)-2-Oxooxazolidin-5-yl)Methyl-7-Isopropyl-1,4a-Dimethyl-1,2,3,4,4a,9,10,10a-Octahydrophenanthrene-1-Carboxylate] | 23.7 ± 2.02 µM | > 100 µM | 72.4 ± 1.07 µM | 51.4 ± 5.06 µM | 18.2 ± 2.36 µM |  |  |  |  |  |
|  | CC(C)c1ccc2c(c1)CC[C@H]1[C@](C)(C(=O)O)CCC[C@]21C [DHA, Dehydroabietic acid] | > 100 µM | > 100 µM | > 100 µM | 62.6 ± 1.6 µM | 29.8 ± 2.06 µM |  |  |  |  |  |
|  | N.N.[Cl][Pt][Cl] [cisplatin, reference compound] |  |  |  |  |  | 10.4 ± 0.25 µM | 36.4 ± 0.79 µM | 24.1 ± 1.74 µM | 21 ± 2.25 µM | 14.9 ± 1.78 µM |

From paper PMC6213879, “Synthesis and Biological Evaluation of Novel Dehydroabietic Acid-Oxazolidinone Hybrids for Antitumor Properties” (International Journal of Molecular Sciences, 2018)
